Some test systems named below: OVCAR-5 ovarian; BT-549 breast; T-47D breast; HOP-92 NSCLC; OVCAR-8 ovarian; HCC-2998 colon; CCRF-CEM leukemia; A498 renal; OVCAR-3 ovarian; UACC-62 melanoma; SW-620 colon; NCI/ADR-RES ovarian; NCI-H460 lung; HL-60(TB) leukemia; SNB-19 CNS; SN12C renal.
Holding throughout (test): NCI anticancer screen, dose series, 48 h

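Results reflect a 48-hour exposure of cells in 96-well plates to compound at five concentrations. GI50 marks 50% less growth. TGI: concentration producing complete growth inhibition.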

`c1ccc2sc(C3(N4CCCCC4)CCCCCC3)cc2c1`: the TGI with OVCAR-5 ovarian was found to be 36.7 µM; in the experiment with BT-549 breast, 52.7 µM; in the experiment on T-47D breast, 31.6 µM; in the experiment on HOP-92 NSCLC, 51.8 µM; with OVCAR-8 ovarian, 72.5 µM; in the experiment with HCC-2998 colon, 27.9 µM. In addition, the TGI in the experiment with CCRF-CEM leukemia was 26.1 µM; in the experiment with A498 renal it was 33.7 µM; with OVCAR-3 ovarian, 37.2 µM; in the experiment on UACC-62 melanoma, 80.4 µM; in the experiment on SW-620 colon, 25 µM; in the experiment on NCI/ADR-RES ovarian, 45.8 µM. Besides, the TGI with NCI-H460 lung turned out to be 38.6 µM; in the experiment on HL-60(TB) leukemia, 11.4 µM; in the experiment with SNB-19 CNS it was 39.4 µM; with SN12C renal, 41.4 µM.
On to `CCOC(=O)C(=O)N=Nc1nc2c(O)c3ccccc3c(O)c2s1`, for which the TGI with OVCAR-5 ovarian is 16.1 µM; in the experiment on BT-549 breast it was 22.9 µM; in the experiment with T-47D breast it was 35.8 µM; in the experiment on HOP-92 NSCLC, 23.1 µM; in the experiment on OVCAR-8 ovarian, 5.12 µM; with HCC-2998 colon, 28.6 µM. The TGI was greater than 100 µM with CCRF-CEM leukemia; 38.2 µM in the experiment on A498 renal; 4.07 µM with OVCAR-3 ovarian; 11.5 µM in the experiment on UACC-62 melanoma; 5.7 µM in the experiment with SW-620 colon; 4.89 µM with NCI/ADR-RES ovarian. Besides, the TGI with NCI-H460 lung was 26.7 µM; with HL-60(TB) leukemia it was greater than 100 µM; in the experiment on SNB-19 CNS, 28.9 µM; in the experiment with SN12C renal, 3.46 µM.
Turning to `COc1ccc(N[C@H](CS(=O)c2ccc(C)cc2)C(F)(F)C(F)(F)F)cc1` (stereo not given in full), the TGI in the experiment with OVCAR-5 ovarian was greater than 100 µM; with BT-549 breast it was greater than 100 µM; with T-47D breast it was greater than 100 µM; with HOP-92 NSCLC, 64.5 µM; in the experiment on OVCAR-8 ovarian, greater than 100 µM; with HCC-2998 colon, greater than 100 µM. The TGI with CCRF-CEM leukemia, in the experiment with A498 renal, in the experiment on OVCAR-3 ovarian, with UACC-62 melanoma, in the experiment with SW-620 colon and in the experiment on NCI/ADR-RES ovarian was greater than 100 µM in each case. Moreover, the TGI in the experiment on NCI-H460 lung, with HL-60(TB) leukemia, in the experiment on SNB-19 CNS and in the experiment on SN12C renal was greater than 100 µM each time.
`COc1cc2c(cc1OC)C1(c3ccccc3)CN(C2)Cc2cc(OC)c(OC)cc21`: the TGI is greater than 100 µM with OVCAR-5 ovarian; 80.1 µM in the experiment on BT-549 breast; greater than 100 µM with T-47D breast; greater than 100 µM with HOP-92 NSCLC; greater than 100 µM in the experiment with OVCAR-8 ovarian; 50.1 µM in the experiment with HCC-2998 colon. Further, the TGI with CCRF-CEM leukemia was 61.4 µM; with A498 renal it was greater than 100 µM; with OVCAR-3 ovarian, greater than 100 µM; in the experiment with UACC-62 melanoma, greater than 100 µM; in the experiment with SW-620 colon it was greater than 100 µM; in the experiment on NCI/ADR-RES ovarian, 74.9 µM. Further, the TGI was greater than 100 µM with NCI-H460 lung, 63.8 µM in the experiment on HL-60(TB) leukemia, greater than 100 µM in the experiment on SNB-19 CNS and greater than 100 µM in the experiment on SN12C renal.
On to `CN(C)CCNC(=O)c1cccc2nc3cccc(F)c3nc12`, for which the TGI in the experiment on OVCAR-5 ovarian was 7.06 µM; with BT-549 breast, 11.4 µM; in the experiment with T-47D breast, greater than 28.4 µM; with HOP-92 NSCLC it was 3.63 µM; in the experiment on OVCAR-8 ovarian, 3.68 µM; in the experiment on HCC-2998 colon, 4.31 µM. In addition, the TGI with CCRF-CEM leukemia is 10.4 µM; with A498 renal, 5.14 µM; in the experiment on OVCAR-3 ovarian, 8.97 µM; in the experiment on UACC-62 melanoma, greater than 19.8 µM; in the experiment with SW-620 colon, 5.82 µM; with NCI/ADR-RES ovarian it was 3.83 µM. Moreover, the TGI in the experiment with NCI-H460 lung is 2.73 µM; with HL-60(TB) leukemia it was 6.39 µM; with SNB-19 CNS it was greater than 35 µM; in the experiment on SN12C renal, 5.48 µM.
Consider `N#CC(C#N)=C(N)/C(C#N)=C/c1cc(O)c(O)c(Br)c1`, for which the TGI in the experiment with OVCAR-5 ovarian, in the experiment with BT-549 breast, in the experiment with T-47D breast, with HOP-92 NSCLC, in the experiment on OVCAR-8 ovarian and with HCC-2998 colon was greater than 100 µM in each case. Further, the TGI in the experiment with CCRF-CEM leukemia is greater than 100 µM; in the experiment with A498 renal, greater than 100 µM; with OVCAR-3 ovarian, 93.6 µM; in the experiment on UACC-62 melanoma, greater than 100 µM; in the experiment with SW-620 colon, greater than 100 µM; with NCI/ADR-RES ovarian it was greater than 100 µM. The TGI in the experiment with NCI-H460 lung is greater than 100 µM; with HL-60(TB) leukemia it was greater than 92.3 µM; with SNB-19 CNS it was greater than 100 µM; in the experiment with SN12C renal, greater than 100 µM.
As for `Cn1cc(C[C@@H](N)C(=O)O)c2ccccc21`, the TGI in the experiment on OVCAR-5 ovarian, in the experiment on BT-549 breast, in the experiment with T-47D breast, in the experiment with HOP-92 NSCLC, with OVCAR-8 ovarian and in the experiment on HCC-2998 colon was greater than 100 µM throughout. For the same compound, the TGI in the experiment on CCRF-CEM leukemia, in the experiment with A498 renal, in the experiment with OVCAR-3 ovarian, with UACC-62 melanoma, in the experiment on SW-620 colon and in the experiment on NCI/ADR-RES ovarian was greater than 100 µM each time. In addition, the TGI in the experiment on NCI-H460 lung, in the experiment with HL-60(TB) leukemia, in the experiment with SNB-19 CNS and in the experiment with SN12C renal was greater than 100 µM each time. Besides, in the experiment on HOP-92 NSCLC, the GI50 is greater than 100 µM.
On to `CCCC(=O)OC[n+]1cccc(-c2c(COC(=O)NC(C)C)c(COC(=O)NC(C)C)c3n2CCC3)c1`, for which the TGI is greater than 100 µM in the experiment on OVCAR-5 ovarian; greater than 100 µM in the experiment on BT-549 breast; greater than 100 µM with T-47D breast; greater than 88.7 µM in the experiment on HOP-92 NSCLC; greater than 100 µM with OVCAR-8 ovarian; greater than 100 µM with HCC-2998 colon. The TGI in the experiment with CCRF-CEM leukemia was greater than 66.3 µM; in the experiment on A498 renal it was greater than 61.6 µM; with OVCAR-3 ovarian it was greater than 100 µM; in the experiment on UACC-62 melanoma it was 61.8 µM; in the experiment with SW-620 colon it was greater than 100 µM; in the experiment on NCI/ADR-RES ovarian it was greater than 100 µM. Further, the TGI in the experiment with NCI-H460 lung was greater than 100 µM; in the experiment on HL-60(TB) leukemia, greater than 67.3 µM; with SNB-19 CNS it was greater than 100 µM; in the experiment on SN12C renal, greater than 100 µM.
As to `Cc1cc2c(cc1C)[n+](=O)c(C(=O)N1CCN(c3ccc([N+](=O)[O-])cc3)CC1)c(C)n2[O-]`, the TGI was greater than 100 µM with OVCAR-5 ovarian; 49.9 µM in the experiment on BT-549 breast; greater than 100 µM with T-47D breast; greater than 100 µM in the experiment with HOP-92 NSCLC; greater than 100 µM with OVCAR-8 ovarian; greater than 100 µM with HCC-2998 colon. Also, the TGI in the experiment on CCRF-CEM leukemia, in the experiment on A498 renal, in the experiment on OVCAR-3 ovarian, in the experiment with UACC-62 melanoma, in the experiment on SW-620 colon and in the experiment on NCI/ADR-RES ovarian was greater than 100 µM each time. Further, the TGI in the experiment with NCI-H460 lung, in the experiment with HL-60(TB) leukemia, in the experiment with SNB-19 CNS and in the experiment on SN12C renal was greater than 100 µM in each case.

Values taken from PubChem BioAssay (NCI).
